Laboratory results published in ChEMBL document CHEMBL1201862, “PubChem BioAssay data set” (2004).
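Dose response: 5 concentrations. Exposure: 48 h. Format: 96-well plates. Endpoint: linear interpolation; highest concentration if not reached. GI50 is the concentration that inhibits growth by half.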 Calls of active or inactive are those of the source. No stated cut-off is given here; in the data, active = GI50 up to about 1.1 µM and inactive = higher.

Tests used:
Experiment in all cases: DTP human tumour cell line panel, 48 h
[1] = tested on: HCT-15
[2] = tested on: M14
[3] = tested on: UACC-62
[4] = tested on: SF-295
[5] = tested on: HOP-92
[6] = tested on: MCF7
[7] = tested on: A549
[8] = tested on: K562
[9] = tested on: MOLT-4
[10] = tested on: BT-549
[11] = tested on: NCI/ADR-RES
[12] = tested on: HT-29
[13] = tested on: SK-MEL-28
[14] = tested on: SR
[15] = tested on: HCT-116
[16] = tested on: MDA-MB-231
[17] = tested on: T47D
[18] = tested on: SN12C
[19] = tested on: NCI-H522

SMILES | GI50 [1] [µM] | GI50 [2] | GI50 [3] | GI50 [4] | GI50 [5] | GI50 [6] | GI50 [7] | GI50 [8] | GI50 [9] | GI50 [10] | GI50 [11] | GI50 [12] | GI50 [13] | GI50 [14] | GI50 [15] | GI50 [16] | GI50 [17] | GI50 [18] | GI50 [19]
O=c1c2nn3c(=O)n(-c4ccccc4)c(=O)c3nn2c(=O)n1-c1ccccc1 | > 100 | > 100 µM (inactive) | > 100 µM (inactive) | 54.1 µM (inactive) | > 100 µM (inactive) | > 100 µM (inactive) | > 100 µM (inactive) | > 100 µM (inactive) | > 100 µM (inactive) | > 100 µM (inactive) | > 100 µM (inactive) | > 100 µM (inactive) | > 100 µM (inactive) | > 100 µM (inactive) | > 100 µM (inactive) | > 100 µM (inactive) | > 100 µM (inactive) | > 100 µM (inactive) | > 100 µM (inactive)
C=C1C(=O)O[C@H]2C1C[C@@H](O)/C(C)=C/CC[C@@]1(C)O[C@H]21 (some centres not stated) | 12.1 | 9.35 µM (inactive) | 24.7 µM (inactive) | > 55.1 µM (inactive) | 8.89 µM (inactive) | 8.57 µM (inactive) | > 55.1 µM (inactive) | 6.37 µM (inactive) | 6.93 µM (inactive) | 8.04 µM (inactive) | 30.5 µM (inactive) | 22.9 µM (inactive) | 15.2 µM (inactive) | 7.64 µM (inactive) | 8.93 µM (inactive) | 18.6 µM (inactive) | 9.12 µM (inactive) | 29.2 µM (inactive) | 2.97 µM (inactive)
Cc1c(C(=O)O)n2cnnc2c2ccccc12 | > 100 | > 100 µM (inactive) | > 100 µM (inactive) | > 100 µM (inactive) | > 100 µM (inactive) | > 100 µM (inactive) | > 100 µM (inactive) | > 100 µM (inactive) | > 100 µM (inactive) | > 100 µM (inactive) | > 100 µM (inactive) | > 100 µM (inactive) | > 100 µM (inactive) | > 100 µM (inactive) | > 100 µM (inactive) | > 100 µM (inactive) | > 100 µM (inactive) | > 100 µM (inactive) | > 100 µM (inactive)
CC(=O)NCCSC(=O)c1ccccc1 | 0.156 | 0.0923 µM (active) | 0.013 µM (active) | 0.147 µM (active) | 0.918 µM (active) | 0.0653 µM (active) | 0.155 µM (active) | 0.285 µM (active) | < 0.0176 µM (active) | 0.946 µM (active) | 0.163 µM (active) | 0.167 µM (active) | 0.268 µM (active) | 0.0146 µM (active) | 0.0488 µM (active) | 1.98 µM (inactive) | 0.197 µM (active) | 0.0853 µM (active) | 0.215 µM (active)
COc1cc(/C=C/c2nc(N)nnc2C)cc(OC)c1OC | 4.04 | 33.3 µM (inactive) | 6.82 µM (inactive) | 29.2 µM (inactive) | 16.6 µM (inactive) | 4.8 µM (inactive) | 20.3 µM (inactive) | 15.5 µM (inactive) | 38.8 µM (inactive) | 20.5 µM (inactive) | 11.2 µM (inactive) | 10.6 µM (inactive) | 30.1 µM (inactive) | 7.52 µM (inactive) | 9.89 µM (inactive) | > 84.1 µM (inactive) | 12.1 µM (inactive) | > 70 µM (inactive) | 2.43 µM (inactive)
CC(C)(C)OC(=O)N1C(C2=COc3ccccc3O2)=COc2ccccc21 | 31.2 | 27.7 µM (inactive) | 15.7 µM (inactive) | 26.9 µM (inactive) | 19.6 µM (inactive) | 24.2 µM (inactive) | 32.7 µM (inactive) | 21.5 µM (inactive) | 17.1 µM (inactive) | 24.8 µM (inactive) | 27.1 µM (inactive) | 32 µM (inactive) | 30.1 µM (inactive) | 21.1 µM (inactive) | 23.9 µM (inactive) | 23.1 µM (inactive) | 11.5 µM (inactive) | 26.6 µM (inactive) | 16 µM (inactive)
COc1cc(-c2cn(S(=O)(=O)c3ccc(C)cc3)c3ccccc23)nc(-c2cn(S(=O)(=O)c3ccc(C)cc3)c3ccccc23)n1 | 0.592 | 0.478 µM (active) | 0.632 µM (active) | 0.432 µM (active) | 4.98 µM (inactive) | 0.395 µM (active) | 0.473 µM (active) | 0.373 µM (active) | 0.69 µM (active) | 4.85 µM (inactive) | 0.746 µM (active) | 0.573 µM (active) | 23.3 µM (inactive) | 0.216 µM (active) | 0.385 µM (active) | 0.933 µM (active) | > 100 µM (inactive) | 1.85 µM (inactive) | 0.239 µM (active)
C=C1CC(Cn2cc(Br)c(=O)[nH]c2=O)(c2ccc(-c3ccccc3)cc2)OC1=O (configuration not stated) | 1.61 | 1.43 µM (inactive) | 1.12 µM (active) | 4.45 µM (inactive) | 0.0308 µM (active) | 0.427 µM (active) | 5.31 µM (inactive) | 0.2 µM (active) | 0.552 µM (active) | 1.66 µM (inactive) | 1.41 µM (inactive) | 0.469 µM (active) | 0.221 µM (active) | 0.32 µM (active) | 0.301 µM (active) | 3.08 µM (inactive) | 2 µM (inactive) | 1.9 µM (inactive) | 0.655 µM (active)
